Assay results as given in US8772478B2, “Benzenesulfonamide compounds, method for synthesizing same, and use thereof in medicine as well as in cosmetics” (Galderma Research & Development, priority 2009, dated 2014).

Columns and labels:
TACE enzyme [1] = conditions: from WO 00/44709, table 10, example 61; cited from earlier work
TACE enzyme [2] = biological target: TACE enzyme (Homo sapiens, UniProt P78536); assay: Enzymatic assay for TACE inhibition; assay type: biochemical; conditions: for % TACE inhibition at 10 μM: 10 μM compound
Description: (§1) A serial 3-fold dilution over 10 points is carried out so as to have a concentration range of from 10 μM to 0.5 nM final concentration. […] The substrate is used at 40 μM. […] The IC50 is determined using mathematical processing software (XLfit).

MMP9 = MMP9 (Homo sapiens (Human), UniProt P14780); assay: Selectivity assay MMP9; assay type: biochemical
Description: as §1
(§2) The enzymes are purchased from Calbiochem.

MMP3 = MMP3 (Homo sapiens (Human), UniProt P08254); assay: Selectivity assay MMP3; assay type: biochemical
ADAM9 = ADAM9 (Homo sapiens (Human), UniProt Q13443); assay: Selectivity assay ADAM9; assay type: biochemical
Description: as §1, §2

MMP1 = MMP1 (Homo sapiens (Human), UniProt P03956); assay: Selectivity assay MMP1; assay type: biochemical
Description: as §1, §2

ADAM10 = ADAM10 (Homo sapiens (Human), UniProt O14672); assay: Selectivity assay ADAM10; assay type: biochemical
Description: as §1, §2

[3] = fluorescent substrate 40 μM, pH 7.4

TACE enzyme (Homo sapiens, UniProt P78536), sequence (P78536 215-824 limits assumed): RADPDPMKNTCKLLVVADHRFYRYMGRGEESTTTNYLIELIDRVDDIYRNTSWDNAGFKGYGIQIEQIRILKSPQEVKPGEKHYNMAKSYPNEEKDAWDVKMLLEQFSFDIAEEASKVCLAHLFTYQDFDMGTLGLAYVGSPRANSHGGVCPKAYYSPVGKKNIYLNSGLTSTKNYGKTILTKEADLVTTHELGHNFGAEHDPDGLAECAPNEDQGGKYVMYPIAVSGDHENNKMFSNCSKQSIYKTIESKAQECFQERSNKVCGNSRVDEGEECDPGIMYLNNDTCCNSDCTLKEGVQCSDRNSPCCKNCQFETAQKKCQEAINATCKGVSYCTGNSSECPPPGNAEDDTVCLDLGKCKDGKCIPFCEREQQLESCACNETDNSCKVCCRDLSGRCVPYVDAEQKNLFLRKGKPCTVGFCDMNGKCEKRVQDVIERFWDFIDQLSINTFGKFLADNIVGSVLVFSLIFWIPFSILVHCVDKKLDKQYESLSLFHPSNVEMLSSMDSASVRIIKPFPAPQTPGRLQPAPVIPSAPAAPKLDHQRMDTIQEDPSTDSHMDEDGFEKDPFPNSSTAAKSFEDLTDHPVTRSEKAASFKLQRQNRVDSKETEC
MMP3, sequence (P08254 100-477, species assumed): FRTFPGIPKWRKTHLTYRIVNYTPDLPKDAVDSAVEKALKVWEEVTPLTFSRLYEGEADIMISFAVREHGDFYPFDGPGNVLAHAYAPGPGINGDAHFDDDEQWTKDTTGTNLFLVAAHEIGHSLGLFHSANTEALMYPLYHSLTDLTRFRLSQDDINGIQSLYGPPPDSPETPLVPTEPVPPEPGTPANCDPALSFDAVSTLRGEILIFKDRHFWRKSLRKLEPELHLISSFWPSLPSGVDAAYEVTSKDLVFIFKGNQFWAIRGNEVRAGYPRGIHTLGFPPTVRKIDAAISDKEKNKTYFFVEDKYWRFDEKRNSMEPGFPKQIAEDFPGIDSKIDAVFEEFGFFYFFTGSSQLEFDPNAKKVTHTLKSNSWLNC
ADAM9, sequence (Q13443 29-819, species assumed): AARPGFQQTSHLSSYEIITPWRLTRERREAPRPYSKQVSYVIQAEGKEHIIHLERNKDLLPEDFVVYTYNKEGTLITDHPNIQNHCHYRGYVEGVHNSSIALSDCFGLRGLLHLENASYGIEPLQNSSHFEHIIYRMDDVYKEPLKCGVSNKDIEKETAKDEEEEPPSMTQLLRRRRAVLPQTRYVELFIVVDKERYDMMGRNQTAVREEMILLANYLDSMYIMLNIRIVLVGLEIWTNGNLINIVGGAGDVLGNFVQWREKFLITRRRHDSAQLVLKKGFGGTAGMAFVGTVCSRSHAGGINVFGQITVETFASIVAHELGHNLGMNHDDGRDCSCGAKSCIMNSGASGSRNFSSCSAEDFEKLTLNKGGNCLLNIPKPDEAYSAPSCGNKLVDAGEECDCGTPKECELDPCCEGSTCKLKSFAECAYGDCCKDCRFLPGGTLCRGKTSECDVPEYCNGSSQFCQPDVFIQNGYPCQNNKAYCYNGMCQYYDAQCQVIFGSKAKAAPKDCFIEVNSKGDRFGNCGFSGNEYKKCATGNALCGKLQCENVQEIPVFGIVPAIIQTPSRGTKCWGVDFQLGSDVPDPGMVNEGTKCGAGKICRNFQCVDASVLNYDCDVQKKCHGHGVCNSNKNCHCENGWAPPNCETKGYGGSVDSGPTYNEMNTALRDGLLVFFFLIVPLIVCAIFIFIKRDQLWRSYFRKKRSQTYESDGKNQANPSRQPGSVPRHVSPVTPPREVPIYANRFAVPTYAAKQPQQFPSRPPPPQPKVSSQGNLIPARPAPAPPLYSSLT
MMP9, sequence (P14780 94-707, species assumed): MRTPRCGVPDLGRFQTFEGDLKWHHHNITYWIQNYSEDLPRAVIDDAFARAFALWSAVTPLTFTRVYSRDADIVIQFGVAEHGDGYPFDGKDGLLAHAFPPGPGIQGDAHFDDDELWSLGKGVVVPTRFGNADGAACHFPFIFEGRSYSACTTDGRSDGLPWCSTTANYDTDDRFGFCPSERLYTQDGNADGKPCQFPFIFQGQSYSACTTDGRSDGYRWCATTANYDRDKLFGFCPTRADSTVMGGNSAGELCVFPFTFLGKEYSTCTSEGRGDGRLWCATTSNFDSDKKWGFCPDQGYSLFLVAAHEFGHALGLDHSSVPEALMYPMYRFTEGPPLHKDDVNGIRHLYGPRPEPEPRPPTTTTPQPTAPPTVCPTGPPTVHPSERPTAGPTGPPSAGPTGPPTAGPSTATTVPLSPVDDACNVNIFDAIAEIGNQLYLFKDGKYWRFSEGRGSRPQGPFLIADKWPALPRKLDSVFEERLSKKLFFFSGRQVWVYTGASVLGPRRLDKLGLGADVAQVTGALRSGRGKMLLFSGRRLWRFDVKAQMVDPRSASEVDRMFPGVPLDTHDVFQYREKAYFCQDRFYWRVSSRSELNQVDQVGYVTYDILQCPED
ADAM10, sequence (O14672 214-748, species assumed): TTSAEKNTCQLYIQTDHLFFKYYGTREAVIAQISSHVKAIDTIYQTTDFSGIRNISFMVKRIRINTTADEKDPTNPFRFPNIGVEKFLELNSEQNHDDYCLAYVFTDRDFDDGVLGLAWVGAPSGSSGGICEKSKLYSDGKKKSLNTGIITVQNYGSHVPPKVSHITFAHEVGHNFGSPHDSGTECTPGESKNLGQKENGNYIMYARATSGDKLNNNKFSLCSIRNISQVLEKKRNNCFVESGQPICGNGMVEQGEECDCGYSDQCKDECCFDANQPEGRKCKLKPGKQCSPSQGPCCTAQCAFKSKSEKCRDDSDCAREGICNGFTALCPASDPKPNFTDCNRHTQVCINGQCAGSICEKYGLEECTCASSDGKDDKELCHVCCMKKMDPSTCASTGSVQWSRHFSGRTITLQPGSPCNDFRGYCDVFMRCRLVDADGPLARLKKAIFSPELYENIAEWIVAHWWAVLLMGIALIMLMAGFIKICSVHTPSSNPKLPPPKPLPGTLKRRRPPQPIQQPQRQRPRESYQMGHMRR
MMP1, sequence (P03956 100-469, species assumed): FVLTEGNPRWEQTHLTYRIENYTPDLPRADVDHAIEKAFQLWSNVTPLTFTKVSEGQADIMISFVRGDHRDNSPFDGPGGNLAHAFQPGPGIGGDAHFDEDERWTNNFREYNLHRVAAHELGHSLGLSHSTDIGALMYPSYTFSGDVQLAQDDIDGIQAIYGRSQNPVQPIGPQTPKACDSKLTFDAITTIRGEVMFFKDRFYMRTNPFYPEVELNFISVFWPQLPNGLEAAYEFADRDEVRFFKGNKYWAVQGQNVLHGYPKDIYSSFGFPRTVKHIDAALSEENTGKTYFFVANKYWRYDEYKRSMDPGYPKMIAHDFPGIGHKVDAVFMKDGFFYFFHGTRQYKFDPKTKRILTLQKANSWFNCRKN

Question: For CC1(C)SCCN(S(=O)(=O)c2ccc(OCC#CCO)cc2)[C@H]1C(=O)NO [Apratastat], which “selectivity for the TACE enzyme compared with certain MMPs” value (TACE enzyme [1]) is on record?
Answer: not selective

Question: What does the source list for O=C(NO)[C@H](CNS(=O)(=O)c1ccc(OCc2ccccc2)cc1)N1CCCCC1 [Example 1, (S)-3-(4-benzyloxybenzenesulfonylamino)-N-hydroxy-2-piperidin-1-ylpropionamide]?
Answer: % TACE inhibition at 10 μM (TACE enzyme [2]): 98%; IC50 (TACE enzyme [2]; [3]): 181 nM

Question: For O=C(NO)[C@H](CNS(=O)(=O)c1ccc(OCc2ccccc2)cc1)N1CCCC1 [Example 2, (S)-3-(4-benzyloxybenzenesulfonylamino)-N-hydroxy-2-pyrrolidin-1-ylpropionamide], which “% TACE inhibition at 10 μM” value (TACE enzyme [2]) is on record?
Answer: 95%

Question: What about the IC50 (TACE enzyme [2]; [3]) of the same compound?
Answer: 298 nM

Question: Which “% TACE inhibition at 10 μM” value (TACE enzyme [2]) does the source give for O=C(NO)[C@H](CNS(=O)(=O)c1ccc(OCc2ccc(F)cc2)cc1)N1CCCCC1 [Example 3, (S)-3-[4-(4-fluorobenzyloxy)benzenesulfonylamino]-N-hydroxy-2-piperidin-1-ylpropionamide] here?
Answer: 97%

Question: What about the IC50 (TACE enzyme [2]; [3]) of the same compound?
Answer: 181 nM

Question: Which “% TACE inhibition at 10 μM” value (TACE enzyme [2]) does the source give for O=C(NO)[C@H](CNS(=O)(=O)c1ccc(OCc2ccc3ccccc3c2)cc1)N1CCCCC1 [Example 5, (S)—N-Hydroxy-3-[4-(naphthalen-2-ylmethoxy)benzenesulfonylamino]-2-piperidin-1-ylpropionamide] here?
Answer: 97%

Question: What about the IC50 (TACE enzyme [2]; [3]) of the same compound?
Answer: 249 nM

Question: For O=C(NO)[C@H](CNS(=O)(=O)c1ccc(OCc2ccc(Cl)c(Cl)c2)cc1)N1CCCCC1 [Example 6, (S)-3-[4-(3,4-dichlorobenzyloxy)benzenesulfonylamino]-N-hydroxy-2-piperidin-1-ylpropionamide], which “% TACE inhibition at 10 μM” value (TACE enzyme [2]) is on record?
Answer: 97%

Question: And the IC50 (TACE enzyme [2]; [3])?
Answer: 328 nM

Question: For O=C(NO)[C@H](CNS(=O)(=O)c1ccc(OCc2ccccc2)cc1)N1CCOCC1 [Example 7, (S)-3-(4-benzyloxybenzenesulfonylamino)-N-hydroxy-2-morpholin-4-ylpropionamide], which “% TACE inhibition at 10 μM” value (TACE enzyme [2]) is on record?
Answer: 98%

Question: And the IC50 (TACE enzyme [2]; [3])?
Answer: 147 nM

Question: With Cc1cc(COc2ccc(S(=O)(=O)NC[C@@H](C(=O)NO)N3CCCCC3)cc2)c2ccccc2n1 [Example 8, (S)—N-hydroxy-3-[4-(2-methylquinolin-4-ylmethoxy)benzenesulfonylamino]-2-piperidin-1-ylpropionamide] as the compound, how does the IC50 (MMP9) read?
Answer: > 10 µM

Question: What about the IC50 (MMP3) of the same compound?
Answer: 4.5 µM

Question: And the IC50 (ADAM9)?
Answer: > 10 µM

Question: What about the “% TACE inhibition at 10 μM” value (TACE enzyme [2]) of the same compound?
Answer: 99%

Question: What about the IC50 (MMP1) of the same compound?
Answer: 3000 nM

Question: And the IC50 (ADAM10)?
Answer: > 10 µM

Question: Which results are given for O=C(NO)[C@H](CNS(=O)(=O)c1ccc(OCc2cc(Cl)cc(Cl)c2)cc1)N1CCCCC1 [Example 9, (S)-3-[4-(3,5-dichlorobenzyloxy)benzenesulfonylamino]-N-hydroxy-2-piperidin-1-ylpropionamide]?
Answer: % TACE inhibition at 10 μM (TACE enzyme [2]): 99%; IC50 (TACE enzyme [2]; [3]): 469 nM

Question: With Cc1cc(COc2ccc(S(=O)(=O)NC[C@@H](C(=O)NO)N3CCOCC3)cc2)c2ccccc2n1 [Example 14, (S)—N-hydroxy-3-[4-(2-methylquinolin-4-ylmethoxy)benzenesulfonylamino]-2-morpholin-4-ylpropionamide] as the compound, how does the IC50 (MMP3) read?
Answer: 3.03 µM

Question: What about the “% TACE inhibition at 10 μM” value (TACE enzyme [2]) of the same compound?
Answer: 91%

Question: What about the IC50 (TACE enzyme [2]; as listed in selectivity assay table) of the same compound?
Answer: 24 nM

Question: What about the IC50 (TACE enzyme [2]; [3]) of the same compound?
Answer: 38 nM

Question: For Cc1cc(COc2ccc(S(=O)(=O)NC[C@@H](C(=O)NO)N3CCCCC3)cc2)c2ccccc2n1.Cl.Cl [Example 15, (S)—N-hydroxy-3-[4-(2-methylquinolin-4-ylmethoxy)benzenesulfonylamino]-2-piperidin-1-ylpropionamide dihydrochloride], which “% TACE inhibition at 10 μM” value (TACE enzyme [2]) is on record?
Answer: 98%
